Experimental data taken from US20140135327A1, “N- (2 -AMINOPHENYL) BENZAMIDE DERIVATIVES AS HISTONE DEACETYLASE INHIBITORS” (CANCER RESEARCH TECHNOLOGY LIMITED, priority 2011, published 2014).

What was measured:
HDAC 6 = biological target: T1, HDAC 6 (Homo sapiens, UniProt Q9UBN7); assay: Caliper HDAC inhibitor profiling assay (microfluidic mobility-shift), HDAC 6; format: biochemical; conditions: 1 hour at room temperature, read-out: IC50 (μM) HDAC6
T1 sequence (Q9UBN7 1-1215): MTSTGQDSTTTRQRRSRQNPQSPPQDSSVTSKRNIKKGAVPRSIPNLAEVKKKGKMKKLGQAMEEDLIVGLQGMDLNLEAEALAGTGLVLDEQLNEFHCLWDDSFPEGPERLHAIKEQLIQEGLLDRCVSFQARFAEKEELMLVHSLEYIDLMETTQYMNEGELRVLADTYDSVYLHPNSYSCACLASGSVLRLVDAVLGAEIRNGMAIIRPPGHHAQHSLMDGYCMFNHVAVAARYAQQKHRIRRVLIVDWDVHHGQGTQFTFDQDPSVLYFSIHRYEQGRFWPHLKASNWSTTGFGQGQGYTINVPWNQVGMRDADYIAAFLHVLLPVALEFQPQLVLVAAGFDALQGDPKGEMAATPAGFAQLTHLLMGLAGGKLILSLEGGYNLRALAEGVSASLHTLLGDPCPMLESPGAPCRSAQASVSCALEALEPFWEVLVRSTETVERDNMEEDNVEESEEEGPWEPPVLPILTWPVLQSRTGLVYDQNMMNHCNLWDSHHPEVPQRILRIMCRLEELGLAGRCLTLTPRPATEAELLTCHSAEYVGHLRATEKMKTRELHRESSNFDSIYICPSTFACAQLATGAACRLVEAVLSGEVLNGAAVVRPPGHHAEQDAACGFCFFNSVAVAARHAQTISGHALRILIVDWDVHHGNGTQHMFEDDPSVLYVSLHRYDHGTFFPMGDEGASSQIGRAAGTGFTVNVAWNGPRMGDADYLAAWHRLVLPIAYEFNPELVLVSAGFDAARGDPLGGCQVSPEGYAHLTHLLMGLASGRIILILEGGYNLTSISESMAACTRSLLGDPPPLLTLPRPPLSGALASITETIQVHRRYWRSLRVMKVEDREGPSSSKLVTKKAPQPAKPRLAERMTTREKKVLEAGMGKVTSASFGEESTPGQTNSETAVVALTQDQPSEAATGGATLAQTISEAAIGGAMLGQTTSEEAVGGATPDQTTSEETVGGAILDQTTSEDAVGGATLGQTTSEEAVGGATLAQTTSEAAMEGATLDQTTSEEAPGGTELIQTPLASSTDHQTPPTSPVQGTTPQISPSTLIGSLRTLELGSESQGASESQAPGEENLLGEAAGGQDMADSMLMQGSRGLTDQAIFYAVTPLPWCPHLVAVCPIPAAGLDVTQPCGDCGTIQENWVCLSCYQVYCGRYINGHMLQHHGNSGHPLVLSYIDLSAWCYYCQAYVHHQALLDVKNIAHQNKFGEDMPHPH
Method: (§1) The activity of the compounds of the invention against HDAC 3 (Class I) and HDAC 6 (Class II) can be determined using the Caliper Life Sciences HDAC inhibitor profiling assay, which utilises microfluidic mobility-shift detection.
(§2) Reaction buffer: 25 mM Tris/Cl, pH 8.0, 137 mM NaCl, 2.7 mM KCl, 1 mM MgCl2, 0.1 mg/ml BSA (fatty acid free).
(§3) Stop Buffer: 100 mM HEPES, pH 7.5, 10 mM EDTA, 0.04% Brij-35, 0.25% CR-3, and 2.5 μM Trichostatin A.
(§4) Stopped reactions were assembled in microtiter plate wells by adding 1 μL of the inhibitor compound in DMSO, 15 μL 2× Enzyme, and 15 μL 2× peptide. The reactions were incubated for 1 hour at room temperature, stopped with the addition of 45 μL Stop Solution, and read on the LabChip EZ Reader®. The curves were fit with sigmoidal dose response algorithm using GraphPad Prism.

HDAC 3 = HDAC 3 (Homo sapiens, UniProt O15379); assay: Caliper HDAC inhibitor profiling assay (microfluidic mobility-shift), HDAC 3; format: biochemical; conditions: 1 hour at room temperature, read-out: IC50 (μM) HDAC3
HDAC 3, sequence (O15379 whole entry, species assumed): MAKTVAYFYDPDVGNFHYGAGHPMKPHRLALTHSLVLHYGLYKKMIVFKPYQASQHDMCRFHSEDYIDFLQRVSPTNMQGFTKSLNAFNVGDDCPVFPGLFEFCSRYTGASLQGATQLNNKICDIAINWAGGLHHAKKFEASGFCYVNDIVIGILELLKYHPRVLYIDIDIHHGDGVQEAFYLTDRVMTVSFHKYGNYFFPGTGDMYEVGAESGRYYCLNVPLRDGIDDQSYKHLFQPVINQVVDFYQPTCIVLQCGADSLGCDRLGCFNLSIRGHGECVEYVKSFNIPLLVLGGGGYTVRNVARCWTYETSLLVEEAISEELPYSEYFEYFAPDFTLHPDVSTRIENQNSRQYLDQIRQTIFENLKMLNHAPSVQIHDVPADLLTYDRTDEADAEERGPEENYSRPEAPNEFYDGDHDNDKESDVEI
HDAC 3, sequence (Q9Y618 395-489 partner limits assumed, species assumed): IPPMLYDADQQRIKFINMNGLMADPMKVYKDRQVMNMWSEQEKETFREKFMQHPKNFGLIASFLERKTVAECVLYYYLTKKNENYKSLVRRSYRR
Method: as §1, §2, §3, §4

Question: Which melting point does the source give for `C=C1CN(Cc2ccc(C(=O)Nc3ccccc3N)cc2)C(CC(=O)OCC)c2ccccc21` (stereo not drawn) [Example 1, Ethyl [2-(4-{[(2-aminophenyl)amino]carbonyl}benzyl)-4-methylene-1,2,3,4-tetrahydroisoquinolin-1-yl]acetate] here?
Answer: 111 to 113 °C

Question: And the IC50 (HDAC 6)?
Answer: > 10 µM

Question: And the IC50 (HDAC 3)?
Answer: 0.89 µM

Question: For `C=C1CN(Cc2ccc(C(=O)Nc3ccccc3N)cc2)C(CC(=O)N2CCCCC2)c2ccccc21` (stereo not drawn) [Example 2, N-(2-Aminophenyl)-4-{[4-methylene-1-(2-oxo-2-piperidin-1-ylethyl)-3,4-dihydroisoquinolin-2(1H)-yl]methyl}benzamide], which melting point is on record?
Answer: 89 to 91 °C

Question: And the IC50 (HDAC 6)?
Answer: > 10 µM

Question: What about the IC50 (HDAC 3) of the same compound?
Answer: 0.51 µM

Question: With `C=C1CN(Cc2ccc(C(=O)Nc3ccccc3N)cc2)C(CC(=O)OC)c2ccccc21` (stereo not drawn) [Example 3, Methyl [2-(4-{[(2-aminophenyl)amino]carbonyl}benzyl)-4-methylene-1,2,3,4-tetrahydroisoquinolin-1-yl]acetate] as the compound, how does the melting point read?
Answer: 151 to 153 °C

Question: What about the IC50 (HDAC 6) of the same compound?
Answer: > 10 µM

Question: And the IC50 (HDAC 3)?
Answer: 0.98 µM

Question: Which melting point does the source give for `C=C1CN(Cc2ccc(C(=O)Nc3ccccc3N)cc2)C(CC(=O)N2CCOCC2)c2ccccc21` (stereo not drawn) [Example 4] here?
Answer: 99 to 101 °C

Question: What about the IC50 (HDAC 6) of the same compound?
Answer: > 10 µM

Question: What about the IC50 (HDAC 3) of the same compound?
Answer: 0.26 µM

Question: Which IC50 (HDAC 6) does the source give for `C=C1CN(Cc2ccc(C(=O)Nc3ccccc3N)cc2)C(CC(=O)c2ccccc2)c2ccccc21` (stereo not drawn) [Example 5, N-(2-Aminophenyl)-4-{[4-methylene-1-(2-oxo-2-phenylethyl)-3,4-dihydroisoquinolin-2(1H)-yl]methyl}benzamide] here?
Answer: > 10 µM

Question: What about the IC50 (HDAC 3) of the same compound?
Answer: 2.7 µM

Question: Which melting point does the source give for `C=C1CN(Cc2ccc(C(=O)Nc3ccccc3N)cc2)C(CC#N)c2ccccc21` (stereo not drawn) [Example 6, N-(2-Aminophenyl)-4-{[1-(cyanomethyl)-4-methylene-3,4-dihydroisoquinolin-2(1H)-yl]methyl}benzamide] here?
Answer: 93 to 95 °C

Question: What about the IC50 (HDAC 6) of the same compound?
Answer: > 10 µM

Question: And the IC50 (HDAC 3)?
Answer: 0.31 µM

Question: What does the source list for `C=C1CN(Cc2ccc(C(=O)Nc3ccccc3N)cc2)C(CC(=O)Nc2ccccc2N)c2ccccc21` (stereo not drawn) [Example 8, N-(2-Aminophenyl)-4-{[1-{2-[(2-aminophenyl)amino]-2-oxoethyl}-4-methylene-3,4-dihydroisoquinolin-2(1H)-yl]methyl}benzamide]?
Answer: melting point: 135 to 137 °C; IC50 (HDAC 6): > 10 µM; IC50 (HDAC 3): 0.35 µM

Question: What does the source list for `C=C1CN(Cc2ccc(C(=O)Nc3ccccc3N)cc2)C(CC(=O)NCCO)c2ccccc21` (stereo not drawn) [Example 10, N-(2-Aminophenyl)-4-{[1-{2-[(2-hydroxyethyl)amino]-2-oxoethyl}-4-methylene-3,4-dihydroisoquinolin-2(1H)-yl]methyl}-benzamide]?
Answer: IC50 (HDAC 6): > 10 µM; IC50 (HDAC 3): 0.67 µM

Question: Which IC50 (HDAC 6) does the source give for `C=C1CN(Cc2ccc(C(=O)Nc3ccccc3N)cc2)C(CC(=O)N2CCN(C)CC2)c2ccccc21` (stereo not drawn) [Example 11, N-(2-Aminophenyl)-4-{[4-methylene-1-[2-(4-methylpiperazin-1-yl)-2-oxoethyl]-3,4-dihydroisoquinolin-2(1H)-yl]methyl}benzamide] here?
Answer: > 10 µM

Question: What about the IC50 (HDAC 3) of the same compound?
Answer: 0.56 µM

Question: Which results are given for `C=C1CN(Cc2ccc(C(=O)Nc3ccccc3N)cc2)C(=O)c2ccc(C(=O)OC)cc21` [Example 13, Methyl 2-(4-{[(2-aminophenyl)amino]carbonyl}benzyl)-4-methylene-1-oxo-1,2,3,4-tetrahydroisoquinoline-6-carboxylate]?
Answer: melting point: 196 to 198 °C; IC50 (HDAC 6): > 10 µM; IC50 (HDAC 3): 0.27 µM

Question: For `C=C1CN(Cc2ccc(C(=O)Nc3ccccc3N)cc2)C(=O)c2ccc(C(=O)NCCN)cc21` [Example 14, N-(2-Aminoethyl)-2-(4-{[(2-aminophenyl)amino]carbonyl}benzyl)-4-methylene-1-oxo-1,2,3,4-tetrahydroisoquinoline-6-carboxamide], which melting point is on record?
Answer: 172 to 174 °C (dec.)

Question: What about the IC50 (HDAC 6) of the same compound?
Answer: > 10 µM

Question: And the IC50 (HDAC 3)?
Answer: 0.23 µM

Question: Which melting point does the source give for `C=C1CN(S(=O)(=O)c2ccc(C(=O)Nc3ccccc3N)cc2)C(CC#N)c2ccccc21` (stereo not drawn) [Example 15] here?
Answer: 213 to 215 °C

Question: And the IC50 (HDAC 6)?
Answer: > 10 µM

Question: What about the IC50 (HDAC 3) of the same compound?
Answer: 1.4 µM
